Measured values as given in ChEMBL document CHEMBL1201862, “PubChem BioAssay data set” (2004).
Active and inactive are the calls of the source.

What was measured:
[1] = target: T1, Eukaryotic translation initiation factor 2-alpha kinase 3 (Homo sapiens, UniProt Q9NZJ5); assay: Dose response cell-based high-throughput screening assay to measure PERK inhibition. [Related pubchem assays: 1416 ]; assay type: functional
T1 sequence (Q9NZJ5 whole entry): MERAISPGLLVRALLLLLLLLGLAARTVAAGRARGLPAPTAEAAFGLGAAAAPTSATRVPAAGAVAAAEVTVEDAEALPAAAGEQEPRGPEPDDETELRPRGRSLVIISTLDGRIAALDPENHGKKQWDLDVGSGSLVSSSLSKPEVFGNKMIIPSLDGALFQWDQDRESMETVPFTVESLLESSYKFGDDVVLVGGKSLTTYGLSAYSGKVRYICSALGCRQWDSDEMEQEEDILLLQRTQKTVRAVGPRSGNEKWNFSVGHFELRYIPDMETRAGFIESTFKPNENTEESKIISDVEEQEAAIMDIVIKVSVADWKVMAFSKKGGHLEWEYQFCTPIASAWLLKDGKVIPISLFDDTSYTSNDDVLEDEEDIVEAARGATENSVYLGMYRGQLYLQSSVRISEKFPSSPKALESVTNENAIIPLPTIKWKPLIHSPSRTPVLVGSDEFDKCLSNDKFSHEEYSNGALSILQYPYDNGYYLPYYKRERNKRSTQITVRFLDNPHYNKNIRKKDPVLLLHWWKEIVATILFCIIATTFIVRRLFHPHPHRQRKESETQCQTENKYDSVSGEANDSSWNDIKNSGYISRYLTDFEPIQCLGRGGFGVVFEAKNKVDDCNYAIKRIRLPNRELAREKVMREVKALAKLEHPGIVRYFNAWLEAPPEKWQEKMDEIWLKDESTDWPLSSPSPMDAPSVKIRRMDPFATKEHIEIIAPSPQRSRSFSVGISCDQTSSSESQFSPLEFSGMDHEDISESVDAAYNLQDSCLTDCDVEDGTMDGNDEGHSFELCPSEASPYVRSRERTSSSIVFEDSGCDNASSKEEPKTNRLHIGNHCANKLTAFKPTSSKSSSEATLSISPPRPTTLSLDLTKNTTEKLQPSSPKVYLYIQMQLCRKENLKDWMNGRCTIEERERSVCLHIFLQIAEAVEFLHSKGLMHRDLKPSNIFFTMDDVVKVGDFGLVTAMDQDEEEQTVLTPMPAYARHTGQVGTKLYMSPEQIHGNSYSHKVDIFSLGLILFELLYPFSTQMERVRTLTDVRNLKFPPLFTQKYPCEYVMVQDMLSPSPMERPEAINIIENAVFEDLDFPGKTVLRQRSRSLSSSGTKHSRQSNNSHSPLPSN

[2] = target: T1, Eukaryotic translation initiation factor 2-alpha kinase 3; assay: Counterscreen assay for PERK inhibitors: Dose response cell-based high throughput screening assay to measure inhibition of PERK at 6 hours. [Related pubchem assays: 1522, 1416 ]; assay type: functional
[3] = target: Neurotensin receptor type 1 (Homo sapiens, UniProt P30989); assay type: functional;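 note: Image-based confirmatory dose-response assay measuring agonist activity at NTR1; NTR1-expressing U2OS osteosarcoma cells imaged for beta-arrestin GFP spot formation; agonist potency where compounds increase beta-arrestin recruitment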
[4] = target: T2, Acyl-homoserine lactone acylase PvdQ (Pseudomonas aeruginosa (strain LESB58), UniProt Q9I194); assay: PvdQ acylase enzyme activity blockers – biochemical, fluorescence, plate reader and imaging, cherry-picks, dose response (AID 493231)
T2 sequence (Q9I194 whole entry): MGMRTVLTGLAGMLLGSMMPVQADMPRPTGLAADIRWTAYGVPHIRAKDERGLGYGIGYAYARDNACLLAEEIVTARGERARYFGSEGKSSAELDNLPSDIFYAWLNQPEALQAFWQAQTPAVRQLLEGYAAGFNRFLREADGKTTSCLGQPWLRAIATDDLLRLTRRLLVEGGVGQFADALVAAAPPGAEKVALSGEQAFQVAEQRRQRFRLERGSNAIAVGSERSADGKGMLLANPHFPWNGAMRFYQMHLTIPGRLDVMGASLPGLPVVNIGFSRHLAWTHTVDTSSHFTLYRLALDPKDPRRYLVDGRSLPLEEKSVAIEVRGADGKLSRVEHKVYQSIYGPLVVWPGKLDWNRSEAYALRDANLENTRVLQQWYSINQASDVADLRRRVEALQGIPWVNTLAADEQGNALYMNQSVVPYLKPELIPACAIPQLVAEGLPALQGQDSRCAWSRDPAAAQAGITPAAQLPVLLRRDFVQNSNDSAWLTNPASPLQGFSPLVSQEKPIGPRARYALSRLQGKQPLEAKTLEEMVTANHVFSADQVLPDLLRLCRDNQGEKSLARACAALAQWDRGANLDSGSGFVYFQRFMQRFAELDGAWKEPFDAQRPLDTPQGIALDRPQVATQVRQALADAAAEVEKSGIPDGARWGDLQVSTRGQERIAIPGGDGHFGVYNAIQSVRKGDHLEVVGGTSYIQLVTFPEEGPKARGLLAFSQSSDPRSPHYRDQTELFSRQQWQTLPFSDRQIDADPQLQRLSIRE

Bcl-2-related protein A1 = target: T3, Bcl-2-related protein A1 (Mus musculus, UniProt Q07440); assay type: functional;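 note: confirmatory dose–response counterscreen on Bfl-1, used to check hits from a UBC13 polyubiquitin inhibitor campaign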
T3 sequence (Q07440 whole entry): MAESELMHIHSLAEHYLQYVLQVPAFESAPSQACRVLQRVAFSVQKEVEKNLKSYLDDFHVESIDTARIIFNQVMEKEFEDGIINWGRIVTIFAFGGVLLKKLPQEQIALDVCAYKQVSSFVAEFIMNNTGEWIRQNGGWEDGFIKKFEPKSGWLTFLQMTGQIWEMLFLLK

[5] = target: T4, Ubiquitin-conjugating enzyme E2 N (Homo sapiens, UniProt P61088); assay type: functional
T4 sequence (P61088 whole entry): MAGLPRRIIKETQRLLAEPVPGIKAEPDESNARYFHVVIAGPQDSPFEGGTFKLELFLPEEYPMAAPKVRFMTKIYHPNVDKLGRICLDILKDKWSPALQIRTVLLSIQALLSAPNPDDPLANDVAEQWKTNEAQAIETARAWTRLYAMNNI

[6] = target: T4, Ubiquitin-conjugating enzyme E2 N; assay type: functional; remark: listed apart in the source
[7] = target: T5, Voltage-gated N-type calcium channel alpha-1B subunit/Amyloid beta A4 precursor protein-binding family A member 1 (Homo sapiens, UniProt Q00975+Q02410); assay type: protein assay
T5 sequence (Q00975 whole entry): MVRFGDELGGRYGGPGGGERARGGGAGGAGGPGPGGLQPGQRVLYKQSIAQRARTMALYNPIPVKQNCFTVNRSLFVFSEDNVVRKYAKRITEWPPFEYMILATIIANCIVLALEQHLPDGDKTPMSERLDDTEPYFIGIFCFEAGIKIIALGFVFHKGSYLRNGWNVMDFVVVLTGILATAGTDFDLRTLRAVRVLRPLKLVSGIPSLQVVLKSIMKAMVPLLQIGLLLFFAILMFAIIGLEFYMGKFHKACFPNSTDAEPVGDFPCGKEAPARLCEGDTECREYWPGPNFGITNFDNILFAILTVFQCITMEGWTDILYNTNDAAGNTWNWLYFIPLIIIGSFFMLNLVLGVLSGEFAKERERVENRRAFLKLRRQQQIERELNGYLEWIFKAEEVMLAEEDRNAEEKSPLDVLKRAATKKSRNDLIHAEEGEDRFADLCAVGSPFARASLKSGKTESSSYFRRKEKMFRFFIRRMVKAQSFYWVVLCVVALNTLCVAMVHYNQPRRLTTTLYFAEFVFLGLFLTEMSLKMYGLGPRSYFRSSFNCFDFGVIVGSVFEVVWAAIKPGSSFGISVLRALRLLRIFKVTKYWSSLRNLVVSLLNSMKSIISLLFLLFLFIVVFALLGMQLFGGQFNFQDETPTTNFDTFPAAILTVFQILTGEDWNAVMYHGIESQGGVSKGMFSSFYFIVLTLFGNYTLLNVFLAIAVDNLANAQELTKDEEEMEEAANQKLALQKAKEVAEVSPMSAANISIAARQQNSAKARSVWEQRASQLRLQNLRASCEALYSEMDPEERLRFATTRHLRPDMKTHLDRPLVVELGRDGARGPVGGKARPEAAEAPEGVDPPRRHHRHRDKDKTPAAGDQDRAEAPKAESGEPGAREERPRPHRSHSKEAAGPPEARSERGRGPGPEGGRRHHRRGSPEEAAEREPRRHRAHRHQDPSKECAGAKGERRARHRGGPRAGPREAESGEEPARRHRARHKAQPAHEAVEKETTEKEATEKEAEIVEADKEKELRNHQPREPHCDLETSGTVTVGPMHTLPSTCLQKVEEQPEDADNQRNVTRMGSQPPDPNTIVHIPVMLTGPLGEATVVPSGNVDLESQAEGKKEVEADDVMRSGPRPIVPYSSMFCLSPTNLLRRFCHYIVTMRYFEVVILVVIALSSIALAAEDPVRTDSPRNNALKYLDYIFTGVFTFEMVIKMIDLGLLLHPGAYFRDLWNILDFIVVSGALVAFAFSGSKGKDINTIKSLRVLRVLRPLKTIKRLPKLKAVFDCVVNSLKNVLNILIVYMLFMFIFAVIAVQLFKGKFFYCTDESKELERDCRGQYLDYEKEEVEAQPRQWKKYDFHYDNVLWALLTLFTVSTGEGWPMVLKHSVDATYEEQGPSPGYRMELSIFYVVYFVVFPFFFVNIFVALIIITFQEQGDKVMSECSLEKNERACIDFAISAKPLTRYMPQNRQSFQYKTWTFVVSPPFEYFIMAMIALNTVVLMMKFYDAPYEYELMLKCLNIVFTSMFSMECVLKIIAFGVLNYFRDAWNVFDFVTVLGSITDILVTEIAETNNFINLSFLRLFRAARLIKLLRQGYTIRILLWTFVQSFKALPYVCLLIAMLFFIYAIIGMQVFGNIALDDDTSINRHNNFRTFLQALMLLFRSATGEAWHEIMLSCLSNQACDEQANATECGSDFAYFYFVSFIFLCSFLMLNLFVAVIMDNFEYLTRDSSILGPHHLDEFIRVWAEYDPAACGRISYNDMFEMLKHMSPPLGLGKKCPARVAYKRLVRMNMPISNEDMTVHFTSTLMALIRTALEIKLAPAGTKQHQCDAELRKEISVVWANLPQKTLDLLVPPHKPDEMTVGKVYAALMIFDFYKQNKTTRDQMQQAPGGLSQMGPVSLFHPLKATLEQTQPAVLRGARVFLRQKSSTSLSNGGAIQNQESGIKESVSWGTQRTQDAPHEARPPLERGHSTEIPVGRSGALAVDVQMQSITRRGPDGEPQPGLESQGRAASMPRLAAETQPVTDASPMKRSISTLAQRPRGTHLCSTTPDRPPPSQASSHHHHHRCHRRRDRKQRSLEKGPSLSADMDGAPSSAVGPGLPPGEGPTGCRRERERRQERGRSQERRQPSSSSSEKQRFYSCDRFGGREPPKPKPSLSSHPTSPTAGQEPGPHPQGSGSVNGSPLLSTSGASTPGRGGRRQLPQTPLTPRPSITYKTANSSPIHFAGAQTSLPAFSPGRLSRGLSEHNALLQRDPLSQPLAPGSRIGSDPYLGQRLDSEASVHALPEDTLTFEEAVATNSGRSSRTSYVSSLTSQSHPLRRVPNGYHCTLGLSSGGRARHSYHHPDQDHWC
T5 sequence (Q02410 whole entry): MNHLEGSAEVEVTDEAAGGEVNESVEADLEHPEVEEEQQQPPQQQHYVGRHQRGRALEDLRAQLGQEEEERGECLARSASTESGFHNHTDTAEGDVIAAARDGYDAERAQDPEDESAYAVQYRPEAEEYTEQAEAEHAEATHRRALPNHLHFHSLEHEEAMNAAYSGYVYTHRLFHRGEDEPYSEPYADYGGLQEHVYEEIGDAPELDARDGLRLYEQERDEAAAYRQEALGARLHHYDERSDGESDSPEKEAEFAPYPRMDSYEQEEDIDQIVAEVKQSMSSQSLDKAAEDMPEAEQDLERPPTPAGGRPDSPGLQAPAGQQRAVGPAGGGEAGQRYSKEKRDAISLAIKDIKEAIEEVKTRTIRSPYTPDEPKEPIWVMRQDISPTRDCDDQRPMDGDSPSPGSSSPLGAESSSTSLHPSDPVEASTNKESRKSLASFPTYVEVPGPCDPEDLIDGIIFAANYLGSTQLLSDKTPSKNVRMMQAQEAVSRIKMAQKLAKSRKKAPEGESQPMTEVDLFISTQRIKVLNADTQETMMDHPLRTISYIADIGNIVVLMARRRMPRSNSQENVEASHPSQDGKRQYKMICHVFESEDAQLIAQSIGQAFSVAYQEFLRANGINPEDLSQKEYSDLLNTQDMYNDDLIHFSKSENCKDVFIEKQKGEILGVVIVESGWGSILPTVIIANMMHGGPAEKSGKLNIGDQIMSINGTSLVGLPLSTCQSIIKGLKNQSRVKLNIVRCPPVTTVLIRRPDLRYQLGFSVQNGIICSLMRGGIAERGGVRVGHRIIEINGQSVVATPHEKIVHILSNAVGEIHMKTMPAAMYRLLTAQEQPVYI

[8] = target: T5, Voltage-gated N-type calcium channel alpha-1B subunit/Amyloid beta A4 precursor protein-binding family A member 1; assay type: protein assay; remark: listed apart in the source
[9] = target: Induced myeloid leukemia cell differentiation protein Mcl-1 (Homo sapiens, UniProt Q07820); assay type: functional
Sequence of Induced myeloid leukemia cell differentiation protein Mcl-1 (Q07820 whole entry): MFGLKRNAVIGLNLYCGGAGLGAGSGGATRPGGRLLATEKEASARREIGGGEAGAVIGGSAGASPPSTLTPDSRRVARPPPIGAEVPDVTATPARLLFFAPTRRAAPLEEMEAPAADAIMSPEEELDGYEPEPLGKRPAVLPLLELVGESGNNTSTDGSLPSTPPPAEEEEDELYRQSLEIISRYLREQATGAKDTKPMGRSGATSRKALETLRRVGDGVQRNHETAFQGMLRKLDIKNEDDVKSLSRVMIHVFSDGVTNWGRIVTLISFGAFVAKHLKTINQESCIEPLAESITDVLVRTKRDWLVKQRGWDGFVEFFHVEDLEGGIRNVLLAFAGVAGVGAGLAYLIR

[10] = target: Eukaryotic translation initiation factor 4E (Mus musculus, UniProt P63073); assay: blockers of eIF4G binding by eIF4E – biochemical, TR-FRET, dose response (AID 855); assay type: functional;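 note: potency for disrupting eIF4E binding to eIF4GI seen as loss of FRET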
Sequence of Eukaryotic translation initiation factor 4E (P63073 whole entry, the tested form may be a part): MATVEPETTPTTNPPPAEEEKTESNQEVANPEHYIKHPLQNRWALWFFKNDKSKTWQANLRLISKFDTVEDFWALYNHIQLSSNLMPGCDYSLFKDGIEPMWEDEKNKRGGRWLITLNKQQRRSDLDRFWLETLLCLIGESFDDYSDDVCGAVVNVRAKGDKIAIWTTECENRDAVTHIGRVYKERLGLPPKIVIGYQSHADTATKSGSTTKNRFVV

[11] = target: T6, Carboxy-terminal domain RNA polymerase II polypeptide A small phosphatase 1 (Homo sapiens, UniProt Q9GZU7); assay: CTDSP1 inhibitors, concentration-response, biochemical, absorbance readout, ultra-high-throughput screen actives (AID 540297); assay type: functional
T6 sequence (Q9GZU7 whole entry): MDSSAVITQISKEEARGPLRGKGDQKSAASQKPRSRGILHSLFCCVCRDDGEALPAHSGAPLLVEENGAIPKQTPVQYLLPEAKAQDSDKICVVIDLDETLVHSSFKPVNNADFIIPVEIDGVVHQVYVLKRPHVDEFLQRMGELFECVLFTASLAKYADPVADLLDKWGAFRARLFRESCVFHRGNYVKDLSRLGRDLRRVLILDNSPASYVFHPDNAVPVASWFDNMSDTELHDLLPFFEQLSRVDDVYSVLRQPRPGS

[12] = A cytotoxicity screen of small molecule inhibitors of the PhoP region in Salmonella typhi identified in the primary screen. [Related pubchem assays: 1850, 1864, 1985 ]; assay type: functional
Cytochrome P450 2C19 = Cytochrome P450 2C19 (Homo sapiens, UniProt P33261); assay: Cytochrome panel assay with activity outcomes. Panel member name: p450-cyp2c19 Compounds with AC50 equal or less than 10 uM are considered active; assay type: functional
[13] = target: T7, Replicative DNA helicase DnaB (Mycobacterium tuberculosis, UniProt P9WMR3); assay: DnaB intein splicing inhibitors, dose response, biochemical, cell-free fluorescence (AID 449749); assay type: functional
T7 sequence (P9WMR3 whole entry): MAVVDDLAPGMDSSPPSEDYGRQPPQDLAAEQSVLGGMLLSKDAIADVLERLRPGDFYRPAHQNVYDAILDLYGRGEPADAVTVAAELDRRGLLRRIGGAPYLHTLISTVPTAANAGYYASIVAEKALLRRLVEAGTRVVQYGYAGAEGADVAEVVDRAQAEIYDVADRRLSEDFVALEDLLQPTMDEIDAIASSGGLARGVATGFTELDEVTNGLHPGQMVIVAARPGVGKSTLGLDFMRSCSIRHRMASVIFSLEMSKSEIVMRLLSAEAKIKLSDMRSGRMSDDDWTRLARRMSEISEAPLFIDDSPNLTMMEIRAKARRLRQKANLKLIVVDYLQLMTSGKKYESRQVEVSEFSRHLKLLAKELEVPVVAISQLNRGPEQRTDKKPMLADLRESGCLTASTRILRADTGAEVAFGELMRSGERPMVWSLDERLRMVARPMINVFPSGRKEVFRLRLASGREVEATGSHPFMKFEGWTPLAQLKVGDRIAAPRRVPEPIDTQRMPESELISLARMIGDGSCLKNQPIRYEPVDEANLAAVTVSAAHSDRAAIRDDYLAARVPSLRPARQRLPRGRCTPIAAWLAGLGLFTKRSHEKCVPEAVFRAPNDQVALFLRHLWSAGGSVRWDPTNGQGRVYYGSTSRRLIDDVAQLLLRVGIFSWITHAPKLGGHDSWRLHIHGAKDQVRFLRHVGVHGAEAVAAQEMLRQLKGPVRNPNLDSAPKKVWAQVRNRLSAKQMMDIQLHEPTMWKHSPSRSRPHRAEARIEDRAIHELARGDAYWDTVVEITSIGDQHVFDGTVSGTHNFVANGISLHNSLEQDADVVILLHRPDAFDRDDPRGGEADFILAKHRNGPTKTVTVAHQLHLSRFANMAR

Protein RecA = target: T8, Protein RecA (Mycobacterium tuberculosis, UniProt P9WHJ3); assay: Fluorescence Cell-Free Homogeneous Dose Retest to Identify Inhibitors of RecA-Intein Splicing Activity. [Related pubchem assays (depositor defined):AID2097, AID2223, AID489010, AID492950]; assay type: functional
T8 sequence (P9WHJ3 whole entry): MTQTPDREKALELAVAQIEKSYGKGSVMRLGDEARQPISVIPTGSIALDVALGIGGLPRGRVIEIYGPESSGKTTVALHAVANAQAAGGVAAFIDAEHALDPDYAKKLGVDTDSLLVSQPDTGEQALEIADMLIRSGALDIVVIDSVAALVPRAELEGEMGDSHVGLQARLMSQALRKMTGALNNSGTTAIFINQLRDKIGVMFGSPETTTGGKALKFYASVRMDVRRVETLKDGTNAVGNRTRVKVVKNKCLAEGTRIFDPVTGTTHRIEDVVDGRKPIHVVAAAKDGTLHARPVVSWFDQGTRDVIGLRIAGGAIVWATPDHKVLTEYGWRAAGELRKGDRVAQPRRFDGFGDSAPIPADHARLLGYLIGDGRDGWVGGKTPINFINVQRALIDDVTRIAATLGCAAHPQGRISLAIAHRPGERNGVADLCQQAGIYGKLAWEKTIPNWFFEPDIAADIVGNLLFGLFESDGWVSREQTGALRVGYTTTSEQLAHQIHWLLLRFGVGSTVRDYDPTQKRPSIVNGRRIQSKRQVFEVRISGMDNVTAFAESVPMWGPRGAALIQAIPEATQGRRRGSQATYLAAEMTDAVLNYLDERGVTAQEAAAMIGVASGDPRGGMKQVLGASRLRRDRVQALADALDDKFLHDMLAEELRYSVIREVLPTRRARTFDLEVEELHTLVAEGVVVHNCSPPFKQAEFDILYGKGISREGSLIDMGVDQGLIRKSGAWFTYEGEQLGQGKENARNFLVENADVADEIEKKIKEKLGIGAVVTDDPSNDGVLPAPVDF

Genome polyprotein = Genome polyprotein (dengue virus type 2, UniProt P29990); assay: flavivirus cap methylation enzyme inhibition – biochemical, confirmation dose response, primary screen (AID 588689); assay type: functional
Sequence of Genome polyprotein (P29990 2492-3391 limits assumed): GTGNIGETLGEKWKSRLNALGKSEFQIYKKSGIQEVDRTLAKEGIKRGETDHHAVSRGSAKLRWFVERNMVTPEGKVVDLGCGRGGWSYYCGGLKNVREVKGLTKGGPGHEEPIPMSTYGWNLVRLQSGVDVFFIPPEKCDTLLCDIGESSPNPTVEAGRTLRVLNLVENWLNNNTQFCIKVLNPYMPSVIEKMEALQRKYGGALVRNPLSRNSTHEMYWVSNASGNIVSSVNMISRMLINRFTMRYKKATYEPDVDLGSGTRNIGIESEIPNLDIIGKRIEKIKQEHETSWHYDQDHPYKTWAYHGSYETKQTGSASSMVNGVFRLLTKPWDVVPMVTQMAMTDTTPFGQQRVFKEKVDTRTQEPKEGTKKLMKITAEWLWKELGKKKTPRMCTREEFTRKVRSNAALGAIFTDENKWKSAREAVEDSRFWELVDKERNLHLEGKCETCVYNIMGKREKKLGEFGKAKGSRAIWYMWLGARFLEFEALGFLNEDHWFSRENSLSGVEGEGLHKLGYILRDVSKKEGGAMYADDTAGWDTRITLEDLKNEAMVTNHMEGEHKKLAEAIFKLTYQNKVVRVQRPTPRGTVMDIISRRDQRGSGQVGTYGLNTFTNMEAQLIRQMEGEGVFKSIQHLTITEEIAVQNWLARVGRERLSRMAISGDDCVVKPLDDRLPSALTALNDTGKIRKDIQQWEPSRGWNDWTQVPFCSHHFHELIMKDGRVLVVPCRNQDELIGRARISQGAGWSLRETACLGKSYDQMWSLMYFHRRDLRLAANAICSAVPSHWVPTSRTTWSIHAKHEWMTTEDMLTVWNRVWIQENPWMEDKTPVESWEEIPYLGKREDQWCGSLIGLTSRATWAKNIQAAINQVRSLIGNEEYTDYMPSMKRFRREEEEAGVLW

[14] = target: DNA dC->dU-editing enzyme APOBEC-3G (Homo sapiens, UniProt Q9HC16); assay: Dose Response confirmation of small molecule APOBEC3G DNA Deaminase Inhibitors via a fluorescence-based single-stranded DNA deaminase assay. [Related pubchem assays (depositor defined):AID493012, AID493028]; assay type: functional
Sequence of DNA dC->dU-editing enzyme APOBEC-3G (Q9HC16 whole entry): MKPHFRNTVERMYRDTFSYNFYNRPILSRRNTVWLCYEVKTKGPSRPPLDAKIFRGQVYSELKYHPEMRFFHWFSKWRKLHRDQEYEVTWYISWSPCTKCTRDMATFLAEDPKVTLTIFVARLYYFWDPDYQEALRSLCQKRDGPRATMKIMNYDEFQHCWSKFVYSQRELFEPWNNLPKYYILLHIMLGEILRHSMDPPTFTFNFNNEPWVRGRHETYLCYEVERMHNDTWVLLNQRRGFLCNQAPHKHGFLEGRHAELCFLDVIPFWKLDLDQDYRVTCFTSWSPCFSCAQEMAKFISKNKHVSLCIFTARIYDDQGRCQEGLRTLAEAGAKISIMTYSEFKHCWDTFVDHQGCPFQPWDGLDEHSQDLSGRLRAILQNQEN

O=C(NC(=S)Nc1ccc2oc(=O)ccc2c1)c1ccccc1F
EC50 [1]: > 55.7 µM (not active)
EC50 [2]: > 55.7 µM (not active)

COc1cc2c(cc1OC)C(SC)=NC(C)(C)C2
EC50 [3]: 9.39 µM (active)

Cc1cc(NC(=O)c2cc([N+](=O)[O-])cc([N+](=O)[O-])c2C)no1
AC50 [4]: 3.11 µM (active)

Cc1ccc(S(=O)(=O)NCCC(C)C)cc1[N+](=O)[O-]
AC50 [4]: 12.5 µM (active)

N#CN(Cc1ccccc1)Cc1ccccc1
AC50 [4]: 1.6 µM (active)

CCOc1ccc(-c2nc(S(=O)(=O)c3ccccc3)c(NC)o2)cc1
IC50 (Bcl-2-related protein A1): > 20 µM (inactive)
IC50 [5]: 19 µM (active)
IC50 [6]: > 20 µM (inactive)

NC1=NC(=Nc2cccc(S(N)(=O)=O)c2)c2ccccc21
EC50 [1]: > 55.7 µM (not active)
EC50 [2]: > 55.7 µM (not active)

CCOC(=O)c1cc(-c2ccc(OC)cc2)nc2c1c(C)nn2CCC#N
IC50 (Bcl-2-related protein A1): > 20 µM (inactive)
IC50 [5]: 15 µM (active)
IC50 [6]: 6.8 µM (active)

CC(C)N(C(=O)/C=C/c1cccc([N+](=O)[O-])c1)C(C)C
EC50 [1]: > 55.7 µM (not active)
EC50 [2]: > 55.7 µM (not active)

CC(=O)c1ccc(NC(=O)CSc2ccsc2[N+](=O)[O-])cc1
IC50 [7]: 6 µM (active)
IC50 [8]: 48.2 µM (active)
IC50 [9]: < 0.4 µM (not active)
IC50 [10]: 50 µM (inactive)
IC50 [11]: 3.83 µM (active)

COc1cccc(C(c2c(C)[nH]n(-c3ccccc3)c2=O)c2c(C)[nH]n(-c3ccccc3)c2=O)c1O
EC50 [12]: > 50 µM (active)
AC50 (Cytochrome P450 2C19): inconclusive
AC50 [13]: 1.18 µM (active)
EC50 (Protein RecA): 0.829 µM (active)
IC50 (Genome polyprotein): 38.8 µM (active)

Sc1nnc(-c2ccco2)n1/N=C/c1ccccn1
IC50 [14]: 9.12 µM (active)
